Measured values reported in patent US20250154138A1, “Small Molecule IL-17A Modulators” (BeiGene, Ltd., priority 2022, published 2025).

Legend:
[1] = test system: IL-17-induced GROα secretion from HT-29 cells; test: GROα release assay in human colorectal adenocarcinoma epithelial cell (HT-29, ELISA); type: cell-based; conditions: Homo sapiens, HT-29, 48 h, 10 ng/mL IL-17A, highest concentration 10 μM, read-out: Cellular assay HT29 cell/CXCL1 IC50
Method in brief: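 IC50 values come from four-parameter fits of GROα levels, quantified by ELISA (450 nm, standard curve) in supernatants. Compounds, 4-fold serially diluted from 10 μM, were mixed 15 min with IL-17A (10 ng/mL final) before 48 h incubation with HT-29 cells at 37°C.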

[2] = target: human IL-17A / human IL-17RA (Homo sapiens (Human), UniProt Q16552); test: Human IL-17A biochemical assay (HTRF, blocking of IL-17A binding to IL-17RA); conditions: 0.4 nM IL-17A, 0.3 nM IL-17RA, max compound concentration 10 uM
Method in brief: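 HTRF readout (ex337, em620/665 nm ratio) after anti-6His Tb cryptate and anti-human IgG-XL665 detection, 1 h RT. Beforehand, 0.4 nM IL-17A sat with compound 3 h RT, then 0.3 nM IL-17RA 1 h. IC50 by four-parameter logistic fit.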

human IL-17A / human IL-17RA, sequence (Q16552 24-155): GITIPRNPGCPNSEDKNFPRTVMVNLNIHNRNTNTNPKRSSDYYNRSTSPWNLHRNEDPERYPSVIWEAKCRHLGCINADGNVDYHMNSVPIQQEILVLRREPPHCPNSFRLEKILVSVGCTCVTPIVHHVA

## CNC(=O)C1(N2CC(Cc3ccc(Cl)cc3)NC2=O)Cc2ccc(NC(=O)[C@@H](NC(=O)c3ccnn3C)C3CCCCC3)cc2C1 (stereo partly drawn) [Example 74, N-((1S)-2-((2-(4-(4-chlorobenzyl)-2-oxoimidazolidin-1-yl)-2-(methylcarbamoyl)-2,3-dihydro-1H-inden-5-yl)amino)-1-cyclohexyl-2-oxoethyl)-1-methyl-1H-pyrazole-5-carboxamide]
[1]
  IC50: 0.342 µM
[2]
  IC50: 0.032 µM

## Cc1ccc(F)cc1NC(=O)C1(N2CC3(CC3)CNC2=O)Cc2ccc(NC(=O)[C@@H](NC(=O)c3nonc3C)C3CCC(F)(F)CC3)cc2C1 (stereo partly drawn) [Example 219, N-((1S)-1-(4,4-difluorocyclohexyl)-2-((2-((5-fluoro-2-methylphenyl)carbamoyl)-2-(6-oxo-5,7-diazaspiro[2.5]octan-5-yl)-2,3-dihydro-1H-inden-5-yl)amino)-2-oxoethyl)-4-methyl-1,2,5-oxadiazole-3-carboxamide]
[1]
  IC50: 0.297 µM
[2]
  IC50: 0.107 µM

## CC1CN(C2(CO)Cc3ccc(NC(=O)[C@@H](NC(=O)c4ccnn4C)C4CCCCC4)cc3C2)C(=O)N1 (stereo partly drawn) [Example 22, N-((1S)-1-cyclohexyl-2-((2-(hydroxymethyl)-2-(4-methyl-2-oxoimidazolidin-1-yl)-2,3-dihydro-1H-inden-5-yl)amino)-2-oxoethyl)-1-methyl-1H-pyrazole-5-carboxamide]
[1]
  IC50: 7.12 µM
[2]
  IC50: 0.95 µM

## CNC(=O)C1(N2C[C@@H](C(C)C)NC2=O)Cc2ccc(NC(=O)C(NC(=O)c3ccnn3C)C3CCC(C(C)(C)C)CC3)cc2C1 (stereo partly drawn) [Example 118, N-(1-(4-(tert-butyl)cyclohexyl)-2-((2-((R)-4-isopropyl-2-oxoimidazolidin-1-yl)-2-(methylcarbamoyl)-2,3-dihydro-1H-inden-5-yl)amino)-2-oxoethyl)-1-methyl-1H-pyrazole-5-carboxamide]
[1]
  IC50: 0.581 µM
[2]
  IC50: 0.192 µM

## CCC1(C)CNC(=O)N(C2(C(=O)NC)Cc3ccc(NC(=O)[C@@H](NC(=O)c4ccnn4C)C4CCCCC4)cc3C2)C1 (stereo partly drawn) [Example 105, N-((1S)-1-cyclohexyl-2-((2-(5-ethyl-5-methyl-2-oxotetrahydropyrimidin-1(2H)-yl)-2-(methylcarbamoyl)-2,3-dihydro-1H-inden-5-yl)amino)-2-oxoethyl)-1-methyl-1H-pyrazole-5-carboxamide]
[1]
  IC50: 0.0555 µM
[2]
  IC50: 0.015 µM

## Cc1nonc1C(=O)N[C@H](C(=O)Nc1ccc2c(c1)OC(C(C)N1C[C@@H](C(F)(F)F)NC1=O)C2)C(C1CC1)C1CC1 (stereo partly drawn) [Example 276, N-((2S)-1,1-dicyclopropyl-3-oxo-3-((2-(1-((S)-2-oxo-4-(trifluoromethyl)imidazolidin-1-yl)ethyl)-2,3-dihydrobenzofuran-6-yl)amino)propan-2-yl)-4-methyl-1,2,5-oxadiazole-3-carboxamide]
[1]
  IC50: 1.46 µM
[2]
  IC50: 0.573 µM

## CNC(=O)C1(N2CC(C(C)C)NC2=O)Cc2cc3nc([C@@H](NC(=O)c4ccnn4C)C4CCCCC4)[nH]c3cc2C1 (stereo partly drawn) [Example 28, 2-((S)-cyclohexyl(1-methyl-1H-pyrazole-5-carboxamido)methyl)-6-(4-isopropyl-2-oxoimidazolidin-1-yl)-N-methyl-1,5,6,7-tetrahydroindeno[5,6-d]imidazole-6-carboxamide]
[1]
  IC50: 0.0765 µM
[2]
  IC50: 0.394 µM

## Cn1nccc1C(=O)NC(C(=O)Nc1ccc2c(c1)CC(N1C[C@@H](C(F)(F)F)NC1=O)C2)C1CCc2cc(Cl)ccc2C1 (stereo partly drawn) [Example 217, N-(1-(6-chloro-1,2,3,4-tetrahydronaphthalen-2-yl)-2-oxo-2-((2-((S)-2-oxo-4-(trifluoromethyl)imidazolidin-1-yl)-2,3-dihydro-1H-inden-5-yl)amino)ethyl)-1-methyl-1H-pyrazole-5-carboxamide]
[1]
  IC50: 0.394 µM
[2]
  IC50: 0.0625 µM

## CNC(=O)C1(N2CC3(CC3)CNC2=O)Cc2ccc(NC(=O)C(NC(=O)c3ccnn3C)C3CCC(C(C)C)CC3)cc2C1 (centres unmarked) [Example 152, N-(1-(4-isopropylcyclohexyl)-2-((2-(methylcarbamoyl)-2-(6-oxo-5,7-diazaspiro[2.5]octan-5-yl)-2,3-dihydro-1H-inden-5-yl)amino)-2-oxoethyl)-1-methyl-1H-pyrazole-5-carboxamide]
[1]
  IC50: 0.031 µM
[2]
  IC50: 0.01 µM

## CNC(=O)C1(N2CC(Cc3ccccc3)CNC2=O)Cc2ccc(NC(=O)[C@@H](NC(=O)c3ccnn3C)C3CCCCC3)cc2C1 (stereo partly drawn) [Example 99, N-((1S)-2-((2-(5-benzyl-2-oxotetrahydropyrimidin-1(2H)-yl)-2-(methylcarbamoyl)-2,3-dihydro-1H-inden-5-yl)amino)-1-cyclohexyl-2-oxoethyl)-1-methyl-1H-pyrazole-5-carboxamide]
[1]
  IC50: 2.48 µM
[2]
  IC50: 0.278 µM

## CNC(=O)C1(N2CC3(CC3)CNC2=O)Cc2ccc(NC(=O)[C@@H](NC(=O)c3ccc(C#N)n3C)C3CCCCC3)cc2C1 (stereo partly drawn) [Example 131, 5-cyano-N-((1S)-1-cyclohexyl-2-((2-(methylcarbamoyl)-2-(6-oxo-5,7-diazaspiro[2.5]octan-5-yl)-2,3-dihydro-1H-inden-5-yl)amino)-2-oxoethyl)-1-methyl-1H-pyrrole-2-carboxamide]
[1]
  IC50: 0.0149 µM
[2]
  IC50: 0.0055 µM

## Cc1nonc1C(=O)N[C@H](C(=O)Nc1ccc2c(c1)CC(Cc1ccc(F)cc1)(N1C[C@@H](C(C)C)NC1=O)C2)C(C1CC1)C1CC1 (stereo partly drawn) [Example 241, N-((2S)-1,1-dicyclopropyl-3-((2-(4-fluorobenzyl)-2-((R)-4-isopropyl-2-oxoimidazolidin-1-yl)-2,3-dihydro-1H-inden-5-yl)amino)-3-oxopropan-2-yl)-4-methyl-1,2,5-oxadiazole-3-carboxamide]
[1]
  IC50: 5.8 µM
[2]
  IC50: 2.92 µM

## CNC(=O)C1(N2CC3(CC3)CNC2=O)Cc2ccc(NC(=O)[C@@H](NC(=O)c3ccc(C#N)n3C3CC3)C3CCCCC3)cc2C1 (stereo partly drawn) [Example 157, 5-cyano-N-((1S)-1-cyclohexyl-2-((2-(methylcarbamoyl)-2-(6-oxo-5,7-diazaspiro[2.5]octan-5-yl)-2,3-dihydro-1H-inden-5-yl)amino)-2-oxoethyl)-1-cyclopropyl-1H-pyrrole-2-carboxamide]
[1]
  IC50: 0.398 µM
[2]
  IC50: 0.037 µM

## CNC(=O)C1(N2C[C@@H](C(C)C)NC2=O)Cc2ccc(NC(=O)[C@@H](NC(=O)c3cccc(C)c3)C3CCCCC3)cc2C1 (stereo partly drawn) [Example 71, 5-((S)-2-cyclohexyl-2-(3-methylbenzamido)acetamido)-2-((R)-4-isopropyl-2-oxoimidazolidin-1-yl)-N-methyl-2,3-dihydro-1H-indene-2-carboxamide]
[1]
  IC50: 0.217 µM
[2]
  IC50: 0.021 µM

## COCC1(N2CC3(CC3)CNC2=O)Cc2ccc(NC(=O)[C@@H](NC(=O)c3ccnn3C(C)C)C(C3CC3)C3CC3)cc2C1 (stereo partly drawn) [Example 160, N-((2S)-1,1-dicyclopropyl-3-((2-(methoxymethyl)-2-(6-oxo-5,7-diazaspiro[2.5]octan-5-yl)-2,3-dihydro-1H-inden-5-yl)amino)-3-oxopropan-2-yl)-1-isopropyl-1H-pyrazole-5-carboxamide]
[1]
  IC50: 0.0931 µM
[2]
  IC50: 0.11 µM

## CC1CN(C2Cc3ccc(NC(=O)[C@@H](NC(=O)c4ccnn4C)C4CCCCC4)cc3C2)C(=O)N1 (stereo partly drawn) [Example 3, N-((1S)-1-cyclohexyl-2-((2-(4-methyl-2-oxoimidazolidin-1-yl)-2,3-dihydro-1H-inden-5-yl)amino)-2-oxoethyl)-1-methyl-1H-pyrazole-5-carboxamide]
[1]
  IC50: 8.43 µM
[2]
  IC50: 3.19 µM
